Assay [1] addresses T1, PhqK (Penicillium fellutanum, UniProt L0E4H0). Briefly: crystal structures. The class given is binding. As to conditions: out conformation with and without substrate.
Assay [2] deals with T1, PhqK. The assay can be described thus: Michaelis-Menten kinetics of spirocyclization. The assay is classed as biochemical. The following applies: FAD-dependent monooxygenase reaction; details in supplement.

T1 sequence (L0E4H0 whole entry): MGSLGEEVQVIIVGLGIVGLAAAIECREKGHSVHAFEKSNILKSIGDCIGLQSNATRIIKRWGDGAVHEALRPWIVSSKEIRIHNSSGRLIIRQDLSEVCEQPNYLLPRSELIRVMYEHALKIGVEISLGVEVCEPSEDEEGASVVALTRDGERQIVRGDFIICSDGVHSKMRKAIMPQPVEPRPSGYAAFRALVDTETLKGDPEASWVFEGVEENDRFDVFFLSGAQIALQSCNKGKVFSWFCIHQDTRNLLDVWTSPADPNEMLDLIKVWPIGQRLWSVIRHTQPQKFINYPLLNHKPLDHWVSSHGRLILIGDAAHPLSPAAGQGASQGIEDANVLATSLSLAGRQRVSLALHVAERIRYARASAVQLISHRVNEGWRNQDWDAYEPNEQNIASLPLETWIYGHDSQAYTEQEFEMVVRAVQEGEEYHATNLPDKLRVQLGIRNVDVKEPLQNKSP

For `Cc1cc2nc3c(=O)[nH]c(=O)nc-3n(C[C@H](O)[C@H](O)[C@H](O)COP(=O)(O)OP(=O)(O)OC[C@H]3O[C@@H](n4cnc5c(N)ncnc54)[C@H](O)[C@@H]3O)c2cc1C` [FAD], at PhqK [1], the “crystal structures (ligand-free 1.71 Å and substrate complexes)” value was “substrate bound and unbound PhqK structures, the flavin was observed in the “out” conformation”. Turning to paraherquamide L [compound 15], the Km on PhqK [2] is 19.4 ± 5.2 µM.

These data come from paper PMC7065246 (Journal of the American Chemical Society, 2020).
